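Tested at 5 concentrations; 48 h exposure; 96-well plates; endpoints linearly interpolated, else capped at highest concentration. At the GI50, growth is halved.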 The source made the active and inactive calls. No stated cut-off is given here; in the data, active = GI50 up to about 1.1 µM and inactive = higher.
Columns and labels:
Test in all cases: NCI tumour cell line growth inhibition, 48 h
K562 = tested on: K562
HT-29 = tested on: HT-29
EKVX = tested on: EKVX
SNB-75 = tested on: SNB-75
NCI-H226 = tested on: NCI-H226
M14 = tested on: M14
HL-60 = tested on: HL-60
OVCAR-3 = tested on: OVCAR-3
SK-MEL-5 = tested on: SK-MEL-5
ACHN = tested on: ACHN
SN12C = tested on: SN12C
KM12 = tested on: KM12
COLO 205 = tested on: COLO 205
U-251 = tested on: U-251
SW-620 = tested on: SW-620
SK-MEL-2 = tested on: SK-MEL-2
BT-549 = tested on: BT-549
Hs-578T = tested on: Hs-578T
PC-3 = tested on: PC-3

Measured: GI50

Cc1c(Cl)cccc1NC(=O)C(=O)c1c(O)c2ccc(O)cc2oc1=O
inactive: K562 > 100 µM | HT-29 > 100 µM | EKVX > 100 µM | SNB-75 > 100 µM | NCI-H226 > 100 µM | M14 > 100 µM | HL-60 > 100 µM | OVCAR-3 > 100 µM | SK-MEL-5 > 100 µM | ACHN > 100 µM | SN12C > 100 µM | KM12 > 100 µM | COLO 205 > 100 µM | U-251 > 100 µM | SW-620 > 100 µM | SK-MEL-2 > 100 µM

CC(CCC[C@H](C)CO)[C@H]1[C@@H](O)C(O)C2[C@@H]3C[C@@H](O)C4(O)C[C@@H](O)CC[C@]4(C)C3CC[C@@]21C (stereo partly drawn)
inactive: K562 31.8 µM | HT-29 > 100 µM | EKVX > 100 µM | SNB-75 > 100 µM | NCI-H226 > 100 µM | M14 > 100 µM | HL-60 44.9 µM | OVCAR-3 > 100 µM | SK-MEL-5 > 100 µM | ACHN > 100 µM | SN12C > 100 µM | KM12 > 100 µM | COLO 205 > 100 µM | U-251 > 100 µM | SW-620 > 100 µM | SK-MEL-2 > 100 µM

Nc1c(Cl)ncnc1NCC1(CO)CCC1
inactive: BT-549 > 100 µM | K562 > 100 µM | HT-29 > 100 µM | EKVX 90.4 µM | SNB-75 > 100 µM | NCI-H226 > 100 µM | HL-60 > 100 µM | Hs-578T > 100 µM | OVCAR-3 > 100 µM | SK-MEL-5 79.4 µM | ACHN > 100 µM | SN12C > 100 µM | KM12 > 100 µM | COLO 205 > 100 µM | U-251 > 100 µM | SW-620 > 100 µM | PC-3 > 100 µM | SK-MEL-2 > 100 µM

O=C(NNC(c1ccccc1)C(F)(F)F)c1ccncc1 (stereo not drawn)
inactive: BT-549 > 100 µM | K562 > 100 µM | HT-29 > 100 µM | EKVX > 100 µM | SNB-75 > 100 µM | NCI-H226 > 100 µM | M14 > 100 µM | HL-60 > 100 µM | SK-MEL-5 > 100 µM | ACHN > 100 µM | SN12C > 100 µM | KM12 > 100 µM | COLO 205 > 100 µM | U-251 > 100 µM | SW-620 > 100 µM | PC-3 > 100 µM | SK-MEL-2 > 100 µM

O=C(CCCNC(=O)OCc1ccccc1)OCc1ccc2c(c1)C(=O)c1ccccc1C2=O
inactive: K562 > 100 µM | HT-29 > 100 µM | EKVX > 100 µM | SNB-75 20 µM | NCI-H226 5.46 µM | M14 > 100 µM | HL-60 > 100 µM | OVCAR-3 > 100 µM | SK-MEL-5 > 30.7 µM | ACHN > 100 µM | SN12C > 10.2 µM | KM12 > 100 µM | COLO 205 > 7.6 µM | U-251 86.1 µM | SW-620 > 100 µM | SK-MEL-2 > 89.7 µM

Clc1ccc2c(Cl)ncnc2c1I
inactive: K562 30.5 µM | HT-29 > 100 µM | EKVX 10.4 µM | SNB-75 14.6 µM | NCI-H226 32.4 µM | M14 49.8 µM | HL-60 20.1 µM | OVCAR-3 > 100 µM | SK-MEL-5 > 100 µM | ACHN > 10 µM | SN12C > 100 µM | KM12 > 100 µM | COLO 205 > 100 µM | U-251 > 100 µM | SW-620 80 µM | SK-MEL-2 > 100 µM

COC(=O)C(C(=O)C(=O)Nc1ccccc1C(C)=O)c1nc2ccc(Cl)cc2nc1O (stereo not drawn)
inactive: K562 > 100 µM | HT-29 > 100 µM | EKVX 56.9 µM | SNB-75 99.5 µM | NCI-H226 78.3 µM | M14 > 100 µM | HL-60 > 100 µM | OVCAR-3 > 100 µM | SK-MEL-5 > 100 µM | ACHN > 100 µM | SN12C > 100 µM | KM12 > 100 µM | COLO 205 > 100 µM | U-251 > 100 µM | SW-620 > 100 µM | SK-MEL-2 > 100 µM

O=c1[nH]c2ccccc2cc1C(Cl)=C(Cl)Cl
inactive: K562 > 100 µM | HT-29 > 100 µM | EKVX 35.7 µM | SNB-75 35.2 µM | NCI-H226 > 100 µM | M14 > 100 µM | HL-60 53.7 µM | OVCAR-3 > 100 µM | ACHN > 100 µM | SN12C > 100 µM | KM12 > 100 µM | COLO 205 > 100 µM | U-251 > 100 µM | SW-620 > 100 µM | SK-MEL-2 > 100 µM

O=C1c2cc3ncsc3cc2C(=O)c2c(O)ccc(O)c21
inactive: BT-549 > 100 µM | K562 > 100 µM | HT-29 > 100 µM | EKVX > 100 µM | SNB-75 > 100 µM | NCI-H226 > 100 µM | M14 > 100 µM | Hs-578T > 100 µM | OVCAR-3 > 100 µM | SK-MEL-5 > 100 µM | ACHN > 100 µM | SN12C > 100 µM | KM12 > 100 µM | COLO 205 > 100 µM | U-251 > 100 µM | SW-620 > 100 µM | PC-3 > 100 µM | SK-MEL-2 > 100 µM

CCCCCCCCCCCCCCCC/C(C(=O)OC)=C(/O)C(=O)OCC
inactive: K562 > 100 µM | HT-29 > 100 µM | SNB-75 55 µM | NCI-H226 > 100 µM | M14 > 100 µM | HL-60 > 100 µM | OVCAR-3 > 100 µM | SK-MEL-5 > 100 µM | ACHN 70.5 µM | SN12C > 100 µM | KM12 > 100 µM | COLO 205 > 100 µM | U-251 > 100 µM | SW-620 > 100 µM | SK-MEL-2 68.9 µM

Cc1ccccc1Nc1cn(COCc2ccccc2)c(=O)[nH]c1=O
inactive: BT-549 14.5 µM | K562 > 100 µM | HT-29 48.5 µM | EKVX 30.7 µM | M14 > 100 µM | HL-60 > 100 µM | Hs-578T 54.3 µM | OVCAR-3 79.8 µM | SK-MEL-5 55 µM | ACHN > 100 µM | SN12C > 100 µM | KM12 57.5 µM | COLO 205 50.9 µM | U-251 > 100 µM | SW-620 > 100 µM | PC-3 38.4 µM

CCOC(=O)CCC(NC(=O)Cc1ccc(Oc2nc3ccccc3nc2-c2cccs2)cc1)C(=O)OCC (stereo not drawn)
inactive: BT-549 29.7 µM | K562 > 100 µM | HT-29 > 100 µM | EKVX 26.1 µM | NCI-H226 16.6 µM | M14 > 100 µM | HL-60 > 100 µM | Hs-578T 13.6 µM | OVCAR-3 4.07 µM | SK-MEL-5 > 100 µM | ACHN 2.44 µM | SN12C 8.89 µM | KM12 > 100 µM | COLO 205 > 100 µM | U-251 11.4 µM | SW-620 > 100 µM | PC-3 80.2 µM | SK-MEL-2 56.5 µM

CCOC(=O)Cc1nc(/C(C#N)=C/c2ccco2)[nH]c(=O)c1C#N
inactive: K562 > 100 µM | HT-29 > 100 µM | EKVX > 100 µM | SNB-75 > 100 µM | NCI-H226 > 100 µM | M14 > 100 µM | HL-60 95.3 µM | OVCAR-3 > 100 µM | SK-MEL-5 > 100 µM | ACHN > 100 µM | SN12C > 100 µM | KM12 > 100 µM | COLO 205 33.5 µM | U-251 > 100 µM | SW-620 > 100 µM | SK-MEL-2 > 100 µM

CCOc1ccccc1/N=N/c1c(-c2ccccc2)nn(C(=O)CC(=O)Nc2cccc(Cl)c2)c1-c1ccccc1
inactive: K562 32.2 µM | HT-29 30 µM | EKVX 41.1 µM | SNB-75 33.8 µM | NCI-H226 64.1 µM | M14 > 100 µM | HL-60 58.6 µM | OVCAR-3 24.7 µM | SK-MEL-5 52.2 µM | ACHN 18.7 µM | SN12C 40.4 µM | KM12 31.8 µM | COLO 205 > 100 µM | U-251 39.5 µM | SW-620 > 100 µM | SK-MEL-2 > 100 µM

COc1ccc(/C(=C/n2ccnc2)C(=O)c2ccc(OC)c(OC)c2)cc1
inactive: K562 > 100 µM | EKVX > 100 µM | SNB-75 > 100 µM | NCI-H226 > 100 µM | M14 > 100 µM | HL-60 > 100 µM | OVCAR-3 > 100 µM | SK-MEL-5 > 100 µM | ACHN > 100 µM | SN12C > 100 µM | KM12 > 100 µM | COLO 205 > 100 µM | U-251 > 100 µM | SW-620 > 100 µM | SK-MEL-2 > 100 µM

c1ccc2c(c1)[n-]n1c3ccc4nonc4c3n[n+]21
inactive: BT-549 > 100 µM | K562 > 100 µM | HT-29 > 100 µM | EKVX > 100 µM | SNB-75 56.1 µM | NCI-H226 > 100 µM | M14 > 100 µM | HL-60 > 100 µM | OVCAR-3 > 100 µM | SK-MEL-5 > 100 µM | ACHN > 100 µM | SN12C > 100 µM | KM12 > 100 µM | COLO 205 > 100 µM | U-251 > 100 µM | SW-620 > 100 µM | PC-3 > 100 µM | SK-MEL-2 > 100 µM

N/C(=N\O)N/N=C/c1ccc(O)c(O)c1
inactive: K562 44.9 µM | HT-29 > 100 µM | EKVX > 100 µM | SNB-75 > 100 µM | NCI-H226 > 100 µM | M14 > 100 µM | HL-60 > 100 µM | OVCAR-3 > 100 µM | SK-MEL-5 > 100 µM | ACHN > 100 µM | SN12C > 100 µM | KM12 > 100 µM | COLO 205 > 100 µM | U-251 > 100 µM | SW-620 > 100 µM | SK-MEL-2 > 100 µM

From ChEMBL document CHEMBL1201862, “PubChem BioAssay data set” (2004)
